Tests used:
[1] = test system: KMS-11; assay: 7-day co-treatment combination study, CellTiter-Glo, Loewe Volume; settings: for Combination effect (Loewe Volume class) of Cpd. No. 15 with combination partner: KMS-11 multiple myeloma cells, 7-day co-treatment with Cpd. No. 15
[2] = test system: NCI-H929; assay: as above; format: cell-based; settings: NCI-H929 multiple myeloma cells, 7-day co-treatment with Cpd. No. 15
Description: (§1) Multiple myeloma (MM) and mantle cell lymphoma (MCL) Cell line cultures in log-linear growth rate were treated with combinations of Cpd. No. 15 and combination partners according to a co-treatment model. […] No. 15 and the combination partner. […] Each combination was tested in quadruplicate wells. The final concentration of DMSO (vehicle) in the assay was 0.1% v/v. Fifty microliters of cell line suspension were directly dispensed to the assay-ready plates with an automated multichannel dispenser on to 384-well assay-ready plates. Assay plates were incubated for seven days in a humidified atmosphere of 5% CO2 at 37° C. Quantification of the effect of single agents or combinations on cell viability was performed through measurement of cellular adenosine triphosphate (ATP) using a CellTiter-Glo® (Promega, MadisonWIs.) Luminescent Cell Viability Assay. Luminescence was detected using a SpectraMax M5 microplate reader (Molecular Devices, Sunnyvale, CA). Concentration response plots were generated in GraphPad Prism version 7.0 for Windows, GraphPad Software, (La Jolla, CA) and curves fitted to a four-parameter logistic model with variable slope. Percent of inhibition was calculated at each treatment concentration.
(§2) The results of these combinations are summarized in Tables A and B (multiple myeloma cell lines), and Tables C and D (mantle cell lymphoma cell lines).

[3] = test system: L363; assay: as above; format: cell-based; settings: L363 multiple myeloma cells, 7-day co-treatment with Cpd. No. 15
Description: as §1, §2

[4] = test system: MM1.S; assay: as above; format: cell-based; settings: MM1.S multiple myeloma cells, 7-day co-treatment with Cpd. No. 15
Description: as §1, §2

[5] = test system: KMS-28-BM; assay: as above; format: cell-based; settings: KMS-28-BM multiple myeloma cells, 7-day co-treatment with Cpd. No. 15
Description: as §1, §2

[6] = test system: KMS34; assay: as above; format: cell-based; settings: KMS34 multiple myeloma cells, 7-day co-treatment with Cpd. No. 15
Description: as §1, §2

[7] = test system: RPMI-8226; assay: as above; format: cell-based; settings: RPMI-8226 multiple myeloma cells, 7-day co-treatment with Cpd. No. 15
Description: as §1, §2

[8] = test system: SUDHL-6; assay: Pre-treatment model combination study (4 days pre-treatment, 3 days co-treatment), CellTiter-Glo, Loewe Volume; format: cell-based; settings: SUDHL-6 diffuse large B-cell lymphoma cells, 4 days Cpd. No. 15 pre-treatment then 3 days co-treatment
Description: (§3) Diffuse large B-cell lymphoma cells were seeded into flasks and pre-treated with several concentrations of Cpd. No. 15 or DMSO. Cells were then split adjusted to initial density, replated and co-treated Cpd. No. 15 and a second agent of interest using the HP D300 digital dispenser (Tecan Group, Mannedorf, Switzerland) in tissue culture treated solid white 384-well plates for additional 3 days. […] After 3 days cotreatment, cell viability was measured via ATP content using CellTiter-Glo® (Promega, Madison, WI) and luminescence was detected using a SpectraMax M5 microplate reader (Molecular Devices, Sunnyvale, CA).
(§4) Diffuse large B-cell lymphoma (DLBCL) cell line cultures in log-linear growth rate were treated with combinations of Cpd. No. 15 and combination partners according to a pre-treatment model. Cells were seeded first into 8 flasks and pre-treated with 7 different concentrations of Cpd. […] Cells were harvested from each flask and re-seeded onto the corresponding 384-well plate with the same concentration of Cpd. No. 15. and 9 concentrations of its combination partner in triplicate wells. The final concentration of DMSO (vehicle) in the assay was 0.1% v/v. Fifty microliters of cell line(s) suspension were directly dispensed to the assay-ready plates with an automated multichannel dispenser on to 384-well assay-ready plates. Assay plates were incubated for three days in a humidified atmosphere of 5% CO2 at 37° C. Quantification of the effect of single agents or combinations on cell viability was performed through measurement of cellular adenosine triphosphate (ATP) using CellTiter-Glo® (Promega, Madison, WI). Luminescence was detected using a SpectraMax M5 microplate reader (Molecular Devices, Sunnyvale, CA). Concentration response plots were generated in GraphPad Prism version 8.0 for Windows, GraphPad Software, (La Jolla, CA) and curves fitted to a four-parameter logistic model with variable slope. Percent of inhibition was calculated at each treatment concentration.

[9] = test system: SUDHL-2; assay: as above; format: cell-based; settings: SUDHL-2 diffuse large B-cell lymphoma cells, 4 days Cpd. No. 15 pre-treatment then 3 days co-treatment
Description: as §3, §4

[10] = test system: WSUDLCL2; assay: as above; format: cell-based; settings: WSUDLCL2 diffuse large B-cell lymphoma cells, 4 days Cpd. No. 15 pre-treatment then 3 days co-treatment
Description: as §3, §4

[11] = test system: KARPAS422; assay: as above; format: cell-based; settings: KARPAS422 diffuse large B-cell lymphoma cells, 4 days Cpd. No. 15 pre-treatment then 3 days co-treatment
Description: as §3, §4

[12] = test system: Z138; assay: 7-day co-treatment combination study, CellTiter-Glo, Loewe Volume; format: cell-based; settings: Z138 mantle cell lymphoma cells, 7-day co-treatment with Cpd. No. 15
Description: as §1, §2

[13] = test system: REC1; assay: as above; format: cell-based; settings: REC1 mantle cell lymphoma cells, 7-day co-treatment with Cpd. No. 15
Description: as §1, §2

[14] = test system: GRANTA519; assay: as above; format: cell-based; settings: GRANTA519 mantle cell lymphoma cells, 7-day co-treatment with Cpd. No. 15
Description: as §1, §2

[15] = test system: JEKO1; assay: as above; format: cell-based; settings: JEKO1 mantle cell lymphoma cells, 7-day co-treatment with Cpd. No. 15
Description: as §1, §2

[16] = test system: MAVER1; assay: as above; format: cell-based; settings: MAVER1 mantle cell lymphoma cells, 7-day co-treatment with Cpd. No. 15
Description: as §1, §2

[17] = test system: MINO; assay: as above; format: cell-based; settings: MINO mantle cell lymphoma cells, 7-day co-treatment with Cpd. No. 15
Description: as §1, §2

[18] = test system: JVM2; assay: as above; format: cell-based; settings: JVM2 mantle cell lymphoma cells, 7-day co-treatment with Cpd. No. 15
Description: as §1, §2

| Structure (SMILES) | Combination effect (Loewe Volume class) of Cpd. No. 15 with combination partner [1] | Combination effect (Loewe Volume class) of Cpd. No. 15 with combination partner [2] | Combination effect (Loewe Volume class) of Cpd. No. 15 with combination partner [3] | Combination effect (Loewe Volume class) of Cpd. No. 15 with combination partner [4] | Combination effect (Loewe Volume class) of Cpd. No. 15 with combination partner [5] | Combination effect (Loewe Volume class) of Cpd. No. 15 with combination partner [6] | Combination effect (Loewe Volume class) of Cpd. No. 15 with combination partner [7] | further results |
| --- | --- | --- | --- | --- | --- | --- | --- | --- |
| Cc1nc2cccc(N)c2c(=O)n1C1CCC(=O)NC1=O (centres unmarked) [CC-122] | Synergy (VLoewe>1: synergy) | Synergy (VLoewe>1: synergy) | Additivity (between 1 and −1: additivity) | Additivity (between 1 and −1: additivity) | Additivity (between 1 and −1: additivity) | Synergy (VLoewe>1: synergy) | Additivity (between 1 and −1: additivity) | – |
| CC(=O)N1CCN([C@H]2CCC[C@@H](NC(=O)c3cc4c(F)ccc(C)c4[nH]3)C2)CC1 [Cpd. No. 15, N-((1R,3S)-3-(4-acetylpiperazin-1-yl)cyclohexyl)-4-fluoro-7-methyl-1H-indole-2-carboxamide] | – | – | – | – | – | – | – | anti-proliferative activity of Cpd. No. 15 combined with pomalidomide ([1]; KMS-11 cells, 7-day co-treatment study, combined with pomalidomide (FIG. 3)): synergistic |
| C[C@@H]1C[C@H]2[C@@H]3CCC4=CC(=O)C=C[C@]4(C)[C@@]3(F)[C@@H](O)C[C@]2(C)[C@@]1(O)C(=O)CO [Dexamethasone, dexamethasone] | Synergy (VLoewe>1: synergy) | Synergy (VLoewe>1: synergy) | Synergy (VLoewe>1: synergy) | Additivity (between 1 and −1: additivity) | Additivity (between 1 and −1: additivity) | Synergy (VLoewe>1: synergy) | Synergy (VLoewe>1: synergy) | – |
| CCN(c1cc(C#CCN2CCOCC2)cc(C(=O)NCc2c(C)cc(C)[nH]c2=O)c1C)[C@H]1CC[C@H](N(C)CCOC)CC1 [EPZ-11989] | Additivity (between 1 and −1: additivity) | No Effect | – | – | Additivity (between 1 and −1: additivity) | – | – | – |
| Cc1[nH]c2ccccc2c1CCNCc1ccc(/C=C/C(=O)NO)cc1 [Panobinostat, panobinostat] | Additivity (between 1 and −1: additivity) | Synergy (VLoewe>1: synergy) | Additivity (between 1 and −1: additivity) | Additivity (between 1 and −1: additivity) | Additivity (between 1 and −1: additivity) | Synergy (VLoewe>1: synergy) | Additivity (between 1 and −1: additivity) | – |
| Nc1cccc2c1C(=O)N(C1CCC(=O)NC1=O)C2=O (centres unmarked) [Pomalidomide, pomalidomide] | Synergy (VLoewe>1: synergy) | Synergy (VLoewe>1: synergy) | Additivity (between 1 and −1: additivity) | Additivity (between 1 and −1: additivity) | Additivity (between 1 and −1: additivity) | Synergy (VLoewe>1: synergy) | Synergy (VLoewe>1: synergy) | – |
| C[C@]12C=CC(=O)C=C1CC[C@@H]1[C@@H]2[C@@H](O)C[C@@]2(C)[C@H]1CC[C@]2(O)C(=O)CO [Prednisolone, prednisolone] | – | – | – | – | – | – | – | Combination effect (Loewe Volume class) of Cpd. No. 15 with combination partner [8]: Synergy (VLoewe>1: synergy); Combination effect (Loewe Volume class) of Cpd. No. 15 with combination partner [9]: Synergy (VLoewe>1: synergy); Combination effect (Loewe Volume class) of Cpd. No. 15 with combination partner [10]: Antagonism (<−1: antagonistic); Combination effect (Loewe Volume class) of Cpd. No. 15 with combination partner [11]: Additivity (between 1 and −1: additivity); Combination effect (Loewe Volume class) of Cpd. No. 15 with combination partner [12]: Additivity (between 1 and −1: additivity); Combination effect (Loewe Volume class) of Cpd. No. 15 with combination partner [13]: Synergy (VLoewe>1: synergy); Combination effect (Loewe Volume class) of Cpd. No. 15 with combination partner [14]: Synergy (VLoewe>1: synergy); Combination effect (Loewe Volume class) of Cpd. No. 15 with combination partner [15]: Additivity (between 1 and −1: additivity); Combination effect (Loewe Volume class) of Cpd. No. 15 with combination partner [16]: Synergy (VLoewe>1: synergy); Combination effect (Loewe Volume class) of Cpd. No. 15 with combination partner [17]: Additivity (between 1 and −1: additivity); Combination effect (Loewe Volume class) of Cpd. No. 15 with combination partner [18]: Additivity (between 1 and −1: additivity) |
| O=C(/C=C\n1cnc(-c2cc(C(F)(F)F)cc(C(F)(F)F)c2)n1)NNc1cnccn1 [Selinexor, selinexor] | Additivity (between 1 and −1: additivity) | Synergy (VLoewe>1: synergy) | Additivity (between 1 and −1: additivity) | Additivity (between 1 and −1: additivity) | Additivity (between 1 and −1: additivity) | Synergy (VLoewe>1: synergy) | Additivity (between 1 and −1: additivity) | – |

Reference: patent publication US12691111B2, “SETD2 inhibitors and related methods and uses, including combination therapies” (EPIZYME, INC., priority 2020, dated 2026)
